# How the values were obtained:
# [1] = tested on: dismetabolic neuropathies; details: animal model of diabetes by streptozotocin; cited from earlier work
# [2] = tested on: renal ischemia/reperfusion; experiment: Experimental renal ischemia/reperfusion model; assay type: in vivo; details: mice, bilateral renal ischemia 30 minutes, 6 hours post-reperfusion; compared to the carrier alone; FIGS. 1 and 2
# Experimental: After being anesthesized with sodium pentobarbital (50 mg/kg i.p.), mice were placed on a heated mat to keep their body temperature at 37° C. during surgery. After a laparatomy, mice were subjected to bilateral renal ischemia during 30 minutes, during which renal arteries and veins were occluded by microaneurysm clamps. The ischemia time selected was based on the time capable of maximizing the reproducibility of the renal function unbalance, while minimizing animal death. After removing renal clamps, kidneys were observed during additional 5 minutes to confirm complete reperfusion, and subsequently 1 ml saline was injected into the abdomen and incision was sutured. […] All plasma samples were analyzed for assessing the biochemical parameters within 24 hours post-withdrawal. Plasma concentrations of urea and creatinine were measured as indicators of the impaired glomerular function. […] Absorbance change rate was spectrometrically measured at 650 nm. […] Determination of Malondialdehyde Levels Malondialdehyde (MDA) levels in kidneys were determined as an indicator of lipid peroxidation. […] Supernatant absorbance was spectrometrically measured at 532 nm. MDA levels were expressed as μM/100 mg wet tissue. […] Total scoring for each kidney was calculated by the sum of all the 100 scores, with a maximum score of 300. […]
smiles,measurement,setting,value
"CCCCCCCCCCCCCCCC(=O)NCCO [PEA, Palmitoylethanolamide]",allodynia,[1],suppresses allodynia
same,blood insulin levels,[1],increase in blood insulin levels
same,body weight,[1],partial body weight recovery
same,"functional and tissue parameters for kidneys (plasma AST, γGT, creatinine, urea; MDA levels, MPO renal activity, histologic assessment)",[2],"neither Silymarin alone nor PEA alone, when used at the same doses as in the combination, showed an improvement effect"
